Test results: patent US7763636B2, “N-(arylalkyl)-1H-pyrrolopyridine-2-carboxamide derivatives, preparation and therapeutic use thereof” (Sanofi-Aventis, priority 2005, dated 2010)

Target: T1, TRPV1 receptors (Mus musculus, UniProt Q704Y3)
T1 construct: from tissue; host or cells: cornea of the living mouse (C fibres)
Experiment: Test of mouse corneal irritation (capsaicin ocular instillation)
Format: in vivo
Details: 1 mg/kg (po), pretreatment time t = 1 h, n = 10, 2 μl of 160 μM capsaicin in the eye, rubbing counted for 2 min
Procedure: Test of Mouse Corneal Irritation
The irritant nature of capsaicin is readily assessed on the cornea since this organ is one of the organs most densely innervated with C fibres. In this context, from preliminary experiments, the application of a very small amount of capsaicin (2 μl at a concentration of 160 μM) to the surface of the cornea of an animal leads to a certain number of stereotypical behavioral traits associated with irritation, which are easy to record. Among these, the following are noted: blinking of the eye, rubbing of the instilled eye with the ipsilateral front paw, rubbing of the face with both front paws, scratching of the ipsilateral face with the hind paw. […] Its aspect is moreover also normal. […]
In practice, the test product is administered orally and, with a delay (pretreatment time: t) that depends on the pharmacokinetic data, the animal receives an ocular instillation of 2 μl of a 160 μM capsaicin solution prepared as indicated above. During a 2-minute observation following the instillation, the number of times the instilled eye is rubbed with the ipsilateral front paw is recorded.
For a given animal, the percentage of protection is calculated as follows: P=100−((number of scratching actions observed/mean number of scratching actions for the group treated with the solvent)×100) […]

T1 sequence (Q704Y3 whole entry): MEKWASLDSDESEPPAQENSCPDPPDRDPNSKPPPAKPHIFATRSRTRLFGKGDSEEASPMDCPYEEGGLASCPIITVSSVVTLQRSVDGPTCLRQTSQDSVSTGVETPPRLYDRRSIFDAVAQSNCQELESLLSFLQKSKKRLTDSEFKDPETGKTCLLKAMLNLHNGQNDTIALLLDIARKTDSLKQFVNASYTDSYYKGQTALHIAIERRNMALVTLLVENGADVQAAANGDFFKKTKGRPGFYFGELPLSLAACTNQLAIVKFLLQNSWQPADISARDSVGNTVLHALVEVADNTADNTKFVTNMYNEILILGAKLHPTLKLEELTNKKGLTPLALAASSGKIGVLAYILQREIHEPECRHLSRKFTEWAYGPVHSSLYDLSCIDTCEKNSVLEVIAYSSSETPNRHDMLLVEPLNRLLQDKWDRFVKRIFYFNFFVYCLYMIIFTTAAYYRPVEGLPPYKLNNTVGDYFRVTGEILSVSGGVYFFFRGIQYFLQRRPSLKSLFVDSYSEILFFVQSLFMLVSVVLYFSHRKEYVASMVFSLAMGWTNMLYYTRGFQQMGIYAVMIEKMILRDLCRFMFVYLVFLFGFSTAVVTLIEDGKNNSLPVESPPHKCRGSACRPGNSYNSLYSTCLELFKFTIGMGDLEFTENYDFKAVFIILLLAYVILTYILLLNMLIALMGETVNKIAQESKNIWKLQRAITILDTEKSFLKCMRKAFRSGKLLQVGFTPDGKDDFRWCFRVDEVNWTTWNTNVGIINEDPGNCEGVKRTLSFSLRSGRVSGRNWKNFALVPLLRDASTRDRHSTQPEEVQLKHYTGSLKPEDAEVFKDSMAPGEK

Compound | % P (percentage of protection)
Cn1cnc2cc(NC(=O)c3cc4cc(F)cnc4n3Cc3cccc(F)c3)ccc21 [Compound 15, N-(1-methyl-1H-benzimidazol-5-yl)-5-fluoro-1-[(3-fluorophenyl)methyl]-1H-pyrrolo[2,3-b]pyridine-2-carboxamide] | 50% - (1 h)

Test system: not given
Experiment: not given
Details: not given

Compound | melting point [°C]
Cn1ccc2cc(NC(=O)c3cc4ccncc4n3Cc3cccc(F)c3)ccc21 | 213 to 214.5
Cn1ccc2cc(NC(=O)c3cc4cc(C(F)(F)F)cnc4n3Cc3cccc(F)c3)ccc21 | 229 to 231
Cc1nc2cc(NC(=O)c3cc4cc(F)cnc4n3Cc3cccc(F)c3)ccc2n1C | 226 to 228
Cc1nc2cc(NC(=O)c3cc4cccnc4n3-c3ccccc3)ccc2n1C | 286 to 288
Cc1nc2cc(NC(=O)c3cc4cnccc4n3Cc3cccc(F)c3)ccc2n1C | 263 to 264
Cn1cnc2cc(NC(=O)c3cc4ncccc4n3Cc3cccc(F)c3)ccc21 | 277 to 281
Cc1nc2cc(NC(=O)c3cc4ncccc4n3Cc3cccc(F)c3)ccc2s1 | 263 to 265
Cc1nc2cc(NC(=O)c3cc4ncccc4n3Cc3cccc(F)c3)ccc2n1C | 245 to 247
Cc1nc2cc(NC(=O)c3cc4cc(Cl)ncc4n3Cc3cccc(F)c3)ccc2n1C | 240 to 242
